Reference: PMC9145754, “Novel Soloxolone Amides as Potent Anti-Glioblastoma Candidates: Design, Synthesis, In Silico Analysis and Biological Activities In Vitro and In Vivo” (Pharmaceuticals, 2022)
Read-outs that look alike come from different tables or passages of the source.

Assays:
HeLa cells = test: MTT cytotoxicity assay, HeLa; type: cell-based; conditions: Homo sapiens, 24 h, read-out: IC50, Cervix, HeLa
Protocol: (§1) In the first step of the study, we analyzed the cytotoxicity of novel soloxolone derivatives 1–12 in a panel of tumor cells, including human cervical carcinoma HeLa, human duodenal carcinoma HuTu-80 and murine melanoma B16 cells, as well as human non-transformed hFF3 foreskin fibroblasts. The cells were treated with derivatives for 24 h and cell viability was evaluated by 3-(4,5-dimethylthiazol-2-yl)-2,5-diphenyltetrazolium bromide (MTT) assay. SM was used as the reference compound.
(§2) The cells in the exponential growth phase were seeded in quadruplicate in 96-well plates at a density of 1 × 10^4 cells/well for HeLa, U87, U118, KELLY and Neuro2a cells; 1.5 × 10^4 cells/well for HuTu-80 cells; 2 × 10^4 cells/well for B16 cells; and 7 × 10^3 cells/well for hFF3 fibroblasts. Cells were incubated under standard conditions overnight followed by their treatment with the investigated compounds (1–20 µM) for 24 h. Then, 10 µL of MTT solution was added to the cells to a final concentration of 0.5 mg/mL and plates were placed under standard conditions for 3 h followed by an aspiration of MTT-containing medium and a dissolution of formazan crystals with 100 µL of DMSO. The absorbance of each well was read at test and reference wavelengths of 570 and 620 nm, respectively, on a Multiscan RC plate reader (Thermo LabSystems, Helsinki, Finland).

HuTu-80 cells = test: MTT cytotoxicity assay, HuTu-80; type: cell-based; conditions: Homo sapiens, HuTu80, 24 h, read-out: IC50, Duodenum, HuTu-80
Protocol: as §1, §2

B16 cells = test: MTT cytotoxicity assay, B16; type: cell-based, murine; conditions: Mus musculus, 24 h, read-out: IC50, Melanoma, B16
Protocol: as §1, §2

[1] = system: hFF3 foreskin fibroblasts; test: MTT cytotoxicity assay, hFF3 fibroblasts; type: cell-based, human
Protocol: as §1, §2

U87 cells = test: MTT cytotoxicity assay, U87; type: cell-based; conditions: Homo sapiens, U-87 MG, 24 h, read-out: IC50, Glioblastoma, U87
Protocol: (§3) To evaluate the antitumor activity of the synthesized soloxolone amides in brain tumor cells, the cytotoxicity of compounds 4–12, predicted as BBB-permeable (Figure 3), was further analyzed in human glioblastoma U87 and U118 cells, as well as human neuroblastoma KELLY and murine neuroblastoma Neuro2a cells.
as §2

U118 cells = test: MTT cytotoxicity assay, U118; type: cell-based; conditions: Homo sapiens, 24 h, read-out: IC50, Glioblastoma, U118
Protocol: as §3, §2

KELLY cells = test: MTT cytotoxicity assay, KELLY; type: cell-based; conditions: Homo sapiens, 24 h, read-out: IC50, Neuroblastoma, KELLY
Protocol: as §3, §2

Neuro2a cells = test: MTT cytotoxicity assay, Neuro2a; type: cell-based, murine; conditions: Mus musculus, N2a, 24 h, read-out: IC50, Neuroblastoma, Neuro2a
Protocol: as §3, §2

panel of tumor cells = test: MTT cytotoxicity, values averaged over the cell panel; type: cell-based
Protocol: as §1, §2

brain tumor cells = test: MTT cytotoxicity, values summarised over brain tumor cells; type: cell-based; conditions: U87, U118, KELLY, Neuro2a; MTT 24 h; read-out: IC50 (median), brain tumor cells
Protocol: as §3, §2

[2] = average over Table 1 cell lines (worded 'in a panel of tumor cells'), MTT 24 h, read-out: average IC50
[3] = aryl-containing amides versus SM, tumor cells of Table 1, MTT 24 h, read-out: average IC50 against tumor cells

Compound	melting point	IC50 (HeLa cells)	IC50 (HuTu-80 cells)	IC50 (B16 cells)	IC50 ([1]; Homo sapiens, HFF-3, 24 h)	IC50 (U87 cells)	IC50 (U118 cells)	IC50 (KELLY cells)	IC50 (Neuro2a cells)	IC50 (panel of tumor cells; [2])	IC50 (panel of tumor cells; [3])	IC50 (panel of tumor cells; conclusions, soloxolone amides versus SM, read-out: average IC50 in a panel of tumor cell lines)	IC50 (brain tumor cells)	IC50 ([1]; 24 h)
CN(C)CCNC(=O)[C@@]1(C)CC[C@]2(C)CC[C@]3(C)[C@H](C(=O)C=C4[C@@]5(C)C=C(C#N)C(=O)C(C)(C)C5CC[C@]43C)[C@@H]2C1 (stereo partly shown) [compound 6, N-(2′-(Dimethylamino)ethyl)-2-Cyano-3,12-dioxo-18βH-olean-9(11),1(2)-dien-30-amide]	–	2600 ± 500 nM	2100 ± 500 nM	3300 ± 500 nM	4100 ± 300 nM	4600 ± 400 nM	3800 ± 500 nM	1600 ± 100 nM	2800 ± 400 nM	3000 nM	–	–	–	–
COC(=O)[C@@]1(C)CC[C@]2(C)CC[C@]3(C)[C@H](C(=O)C=C4[C@@]5(C)C=C(C#N)C(=O)C(C)(C)C5CC[C@]43C)[C@@H]2C1 (stereo partly shown) [SM, soloxolone methyl, reference compound]	–	1300 ± 100 nM	1500 ± 100 nM	1600 ± 100 nM	4000 ± 400 nM	1800 ± 100 nM	1900 ± 100 nM	1600 ± 100 nM	1400 ± 100 nM	2100 nM	1500 nM	1600 nM	1400 nM	–
Cc1ccc(NC(=O)[C@@]2(C)CC[C@]3(C)CC[C@]4(C)[C@H](C(=O)C=C5[C@@]6(C)C=C(C#N)C(=O)C(C)(C)C6CC[C@]54C)[C@@H]3C2)cc1 (stereo partly shown) [compound 9, N-p-Tolyl-2-cyano-3,12-dioxo-18βH-olean-9(11),1(2)-dien-30-amide]	–	1600 ± 100 nM	1500 ± 100 nM	2100 ± 300 nM	3600 ± 300 nM	2000 ± 200 nM	1900 ± 200 nM	1400 ± 100 nM	1600 ± 100 nM	–	1500 to 1800 nM	–	–	–
CC1(C)C(=O)C(C#N)=C[C@]2(C)C3=CC(=O)[C@@H]4[C@@H]5C[C@@](C)(C(=O)NCCO)CC[C@]5(C)CC[C@@]4(C)[C@]3(C)CCC12 (stereo partly shown) [compound 2, N-(2′-Hydroxyethyl)-2-cyano-3,12-dioxo-18βH-olean-9(11),1(2)-dien-30-amide]	152.7 °C (dec.)	1500 ± 100 nM	1400 ± 100 nM	3300 ± 200 nM	1200 ± 100 nM	–	–	–	–	1900 nM	–	–	–	–
CC1(C)C(=O)C(C#N)=C[C@]2(C)C3=CC(=O)[C@@H]4[C@@H]5C[C@@](C)(C(=O)NCCCCCO)CC[C@]5(C)CC[C@@]4(C)[C@]3(C)CCC12 (stereo partly shown) [compound 4, N-(5′-Hydroxypentyl)-2-cyano-3,12-dioxo-18βH-olean-9(11),1(2)-dien-30-amide]	115.7 °C (dec.)	2300 ± 400 nM	1300 ± 100 nM	1500 ± 100 nM	3600 ± 300 nM	2000 ± 100 nM	3100 ± 500 nM	1500 ± 100 nM	1900 ± 200 nM	2200 nM	–	–	–	–
CN(C)CCCNC(=O)[C@@]1(C)CC[C@]2(C)CC[C@]3(C)[C@H](C(=O)C=C4[C@@]5(C)C=C(C#N)C(=O)C(C)(C)C5CC[C@]43C)[C@@H]2C1 (stereo partly shown) [compound 7, N-(3′-(Dimethylamino)propyl)-2-cyano-3,12-dioxo-18βH-olean-9(11),1(2)-dien-30-amide]	–	4900 ± 800 nM	2000 ± 700 nM	3300 ± 800 nM	7700 ± 1100 nM	5300 ± 700 nM	5200 ± 1300 nM	1800 ± 300 nM	3700 ± 600 nM	4500 nM	–	–	–	–
CC1(C)C(=O)C(C#N)=C[C@]2(C)C3=CC(=O)[C@@H]4[C@@H]5C[C@@](C)(C(=O)NCCCO)CC[C@]5(C)CC[C@@]4(C)[C@]3(C)CCC12 (stereo partly shown) [compound 3, N-(3′-Hydroxypropyl)-2-cyano-3,12-dioxo-18βH-olean-9(11),1(2)-dien-30-amide]	150.8 °C (dec.)	3500 ± 200 nM	1700 ± 200 nM	1400 ± 100 nM	6800 ± 1300 nM	–	–	–	–	3400 nM	–	–	–	–
CC1(C)C(=O)C(C#N)=C[C@]2(C)C3=CC(=O)[C@@H]4[C@@H]5C[C@@](C)(C(=O)O)CC[C@]5(C)CC[C@@]4(C)[C@]3(C)CCC12 (stereo partly shown) [compound 1, 2-Cyano-3,12-dioxo-18βH-olean-9(11),1(2)-dien-30-oic acid]	–	9900 ± 700 nM	2500 ± 300 nM	4200 ± 300 nM	16000 ± 1900 nM	–	–	–	–	8200 nM	–	–	–	–

Continued, in another order:

melting point	Compound	IC50 (HeLa cells)	IC50 (HuTu-80 cells)	IC50 (B16 cells)	IC50 ([1]; Homo sapiens, HFF-3, 24 h)	IC50 (U87 cells)	IC50 (U118 cells)	IC50 (KELLY cells)	IC50 (Neuro2a cells)	IC50 (panel of tumor cells; [2])	IC50 (panel of tumor cells; [3])	IC50 (panel of tumor cells; conclusions, soloxolone amides versus SM, read-out: average IC50 in a panel of tumor cell lines)	IC50 (brain tumor cells)	IC50 ([1]; 24 h)
283 °C (dec.)	CC1(C)C(=O)C(C#N)=C[C@]2(C)C3=CC(=O)[C@@H]4[C@@H]5C[C@@](C)(C(=O)Nc6ccc(Br)cc6)CC[C@]5(C)CC[C@@]4(C)[C@]3(C)CCC12 (stereo partly shown) [compound 8, N-(4′-Bromophenyl)-2-Cyano-3,12-dioxo-18βH-olean-9(11),1(2)-dien-30-amide]	1500 ± 100 nM	1400 ± 100 nM	1900 ± 100 nM	1800 ± 100 nM	1700 ± 100 nM	2000 ± 100 nM	1400 ± 100 nM	1600 ± 100 nM	–	1500 to 1800 nM	–	–	–
139 °C (dec.)	CC(C)(C)c1cc(CCCNC(=O)[C@@]2(C)CC[C@]3(C)CC[C@]4(C)[C@H](C(=O)C=C5[C@@]6(C)C=C(C#N)C(=O)C(C)(C)C6CC[C@]54C)[C@@H]3C2)cc(C(C)(C)C)c1O (stereo partly shown) [compound 11, N-(3′-(3′’,5′’-di-tert-butyl-4′’-hydroxyphenyl)propyl)-2-Cyano-3,12-dioxo-18βH-olean-9(11),1(2)-dien-30-amide]	2500 ± 100 nM	1500 ± 100 nM	1400 ± 100 nM	1300 ± 200 nM	1500 ± 100 nM	1900 ± 100 nM	1800 ± 200 nM	1400 ± 100 nM	–	1500 to 1800 nM	–	–	–
250 °C	CC1(C)C(=O)C(C#N)=C[C@]2(C)C3=CC(=O)[C@@H]4[C@@H]5C[C@@](C)(C(=O)Nc6cccnc6)CC[C@]5(C)CC[C@@]4(C)[C@]3(C)CCC12 (stereo partly shown) [compound 10, N-(Pyridin-3-yl)-2-Cyano-3,12-dioxo-18βH-olean-9(11),1(2)-dien-30-amide]	1800 ± 100 nM	1500 ± 200 nM	1700 ± 100 nM	1600 ± 100 nM	2500 ± 200 nM	2100 ± 200 nM	1500 ± 100 nM	1400 ± 100 nM	–	1500 to 1800 nM	–	–	–
115.9 °C (dec.)	COCCNC(=O)[C@@]1(C)CC[C@]2(C)CC[C@]3(C)[C@H](C(=O)C=C4[C@@]5(C)C=C(C#N)C(=O)C(C)(C)C5CC[C@]43C)[C@@H]2C1 (stereo partly shown) [compound 5, N-(2′-Methoxyethyl)-2-cyano-3,12-dioxo-18βH-olean-9(11),1(2)-dien-30-amide]	1500 ± 200 nM	2300 ± 200 nM	1600 ± 100 nM	12800 nM	5500 ± 1100 nM	7000 ± 700 nM	1600 ± 100 nM	2700 ± 300 nM	–	–	–	–	12900 ± 800 nM
